# Patent US6737383B1, “Herbicidal oxadiazolidines” (priority 1999, dated 2004)
# Legend:
# [1] = tested on: wheat; experiment: Test B pre/postemergence wheat; format: in vivo, Triticum aestivum; conditions: for Wheat plant response rating: scale of 0 to 10 where 0 is no effect and 10 is complete control
# How it was run: (§1)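 Response is a visual 0-to-10 score relative to untreated plants, where 0 means no effect and 10 means complete control, taken twelve to sixteen days after application. Treatments went onto soil at planting and onto foliage of 1- to 4-leaf plants, using a surfactant-containing non-phytotoxic solvent.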
# [2] = tested on: pigweed; experiment: Test B pre/postemergence pigweed; format: in vivo, Amaranthus retroflexus; conditions: for Redroot pigweed plant response rating: scale of 0 to 10 where 0 is no effect and 10 is complete control
# How it was run: as §1
# [3] = tested on: giant foxtail; experiment: Test B pre/postemergence giant foxtail; format: in vivo, Setaria faberii; conditions: for Giant foxtail plant response rating: scale of 0 to 10 where 0 is no effect and 10 is complete control
# How it was run: as §1
# [4] = tested on: crabgrass; experiment: Test B pre/postemergence crabgrass; format: in vivo, Digitaria sanguinalis; conditions: for Crabgrass plant response rating: scale of 0 to 10 where 0 is no effect and 10 is complete control
# How it was run: as §1
# [5] = tested on: rice; experiment: Test B flood test rice; format: in vivo, Oryza sativa
# How it was run: (§2)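 Each value is a visual injury score relative to controls, with 10 meaning complete control and 0 no effect. Evaluation took place twelve to sixteen days after the 2-leaf-stage plants were treated and kept in the greenhouse.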
# [6] = tested on: corn; experiment: Test B pre/postemergence corn; format: in vivo, Zea mays; conditions: for Corn plant response rating: scale of 0 to 10 where 0 is no effect and 10 is complete control
# How it was run: as §1
# [7] = tested on: smallflower flatsedge; experiment: Test B flood test smallflower flatsedge; format: in vivo, Cyperus difformis
# How it was run: as §2
# [8] = tested on: morningglory; experiment: Test B pre/postemergence morningglory; format: in vivo, Ipomoea hederacea; conditions: for Morningglory plant response rating: scale of 0 to 10 where 0 is no effect and 10 is complete control
# How it was run: as §1
# [9] = tested on: sugar beet; experiment: Test B pre/postemergence sugar beet; format: in vivo, Beta vulgaris; conditions: for Sugarbeets plant response rating: scale of 0 to 10 where 0 is no effect and 10 is complete control
# How it was run: as §1
# [10] = tested on: bedstraw; experiment: Test B pre/postemergence bedstraw; format: in vivo, Galium aparine; conditions: for Bedstraw plant response rating: scale of 0 to 10 where 0 is no effect and 10 is complete control
# How it was run: as §1
# [11] = tested on: purple nutsedge; experiment: Test B pre/postemergence purple nutsedge; format: in vivo, Cyperus rotundus; conditions: for Nutsedge plant response rating: scale of 0 to 10 where 0 is no effect and 10 is complete control
# How it was run: as §1
# [12] = tested on: rape; experiment: Test B pre/postemergence rape; format: in vivo, Brassica napus; conditions: for Rape plant response rating: scale of 0 to 10 where 0 is no effect and 10 is complete control
# How it was run: as §1
# [13] = tested on: wild oat; experiment: Test B pre/postemergence wild oat; format: in vivo, Avena fatua; conditions: for Wild oats plant response rating: scale of 0 to 10 where 0 is no effect and 10 is complete control
# How it was run: as §1
# [14] = tested on: blackgrass; experiment: Test B pre/postemergence blackgrass; format: in vivo, Alopecurus myosuroides; conditions: for Blackgrass plant response rating: scale of 0 to 10 where 0 is no effect and 10 is complete control
# How it was run: as §1
# [15] = tested on: bamyardgrass; experiment: Test B flood test barnyardgrass; format: in vivo, Echinochloa crus-galli
# How it was run: as §2
# [16] = tested on: surinam grass; experiment: Test B pre/postemergence surinam grass; format: in vivo, Brachiaria decumbens; conditions: for B. signalgrass plant response rating: scale of 0 to 10 where 0 is no effect and 10 is complete control
# How it was run: as §1
# [17] = Postemergence, Rate 125 g/ha, scale 0 to 10, 0 is no effect, 10 is complete control
# [18] = Postemergence, Rate 250 g/ha, scale 0 to 10, 0 is no effect, 10 is complete control
# [19] = Preemergence, Rate 62 g/ha, scale 0 to 10 (0 no effect, 10 complete control)
# [20] = Rate 500 g/ha, Postemergence, scale 0 to 10, 0 no effect, 10 complete control
# [21] = Rate 62 g/ha, flood test species, Pre-emergence, visual evaluation after twelve to sixteen days
# [22] = Rate 125 g/ha, under heading Pre-emergence, flood test species, visual evaluation after twelve to sixteen days
# [23] = Rate 250 g/ha, Pre-emergence, flood-test species, scale 0 to 10, 0 is no effect, 10 is complete control
# [24] = Rate 500 g/ha, Pre-emergence, flood test species, scale 0 to 10 (0 no effect, 10 complete control)
compound,measurement,setting,value
Cc1nnsc1Cn1c(=O)on(C(=O)N(c2ccccc2)C(C)C)c1=O [Compound 378],"Plant response rating, Wheat",[1]; [17],0
same,"Plant response rating, Wheat",[1]; [18],0
same,"Plant response rating, Wheat",[1]; [19],0
same,Wheat plant response rating (0 to 10 scale),"[1]; Preemergence, Rate 125 g/ha",0
same,Wheat plant response rating,"[1]; Preemergence, Rate 250 g/ha",0
same,Wheat plant response rating,"[1]; Preemergence, Rate 500 g/ha",0
same,Wheat plant response rating,"[1]; Rate 62 g/ha, Postemergence",0
same,"Plant response rating, Wheat",[1]; [20],0
same,"Plant response rating, Redroot pigweed",[2]; [17],0
same,"Plant response rating, Redroot pigweed",[2]; [18],0
same,"Plant response rating, Redroot pigweed",[2]; [19],0
same,Redroot pigweed plant response rating (0 to 10 scale),"[2]; Preemergence, Rate 125 g/ha",0
same,Redroot pigweed plant response rating,"[2]; Preemergence, Rate 250 g/ha",0
same,Redroot pigweed plant response rating,"[2]; Preemergence, Rate 500 g/ha",0
same,Redroot pigweed plant response rating,"[2]; Rate 62 g/ha, Postemergence",0
same,"Plant response rating, Redroot pigweed",[2]; [20],2
same,"Plant response rating, Giant foxtail",[3]; [17],0
same,"Plant response rating, Giant foxtail",[3]; [18],3
same,"Plant response rating, Giant foxtail",[3]; [19],4
same,Giant foxtail plant response rating (0 to 10 scale),"[3]; Preemergence, Rate 125 g/ha",4
same,Giant foxtail plant response rating,"[3]; Preemergence, Rate 250 g/ha",10
same,Giant foxtail plant response rating,"[3]; Preemergence, Rate 500 g/ha",10
same,Giant foxtail plant response rating,"[3]; Rate 62 g/ha, Postemergence",0
same,"Plant response rating, Giant foxtail",[3]; [20],8
same,"Plant response rating, Crabgrass",[4]; [17],0
same,"Plant response rating, Crabgrass",[4]; [18],0
same,"Plant response rating, Crabgrass",[4]; [19],0
same,Crabgrass plant response rating (0 to 10 scale),"[4]; Preemergence, Rate 125 g/ha",3
same,Crabgrass plant response rating,"[4]; Preemergence, Rate 250 g/ha",9
same,Crabgrass plant response rating,"[4]; Preemergence, Rate 500 g/ha",10
same,Crabgrass plant response rating,"[4]; Rate 62 g/ha, Postemergence",0
same,"Plant response rating, Crabgrass",[4]; [20],2
same,"Plant response rating, Rice (0 to 10 scale, 0 is no effect, 10 is complete control)",[5]; [21],0
same,"Rice plant response rating (0 to 10 scale, 0 is no effect, 10 is complete control)",[5]; [22],0
same,Rice plant response rating,[5]; [23],0
same,Rice plant response rating,[5]; [24],0
same,"Plant response rating, Corn",[6]; [17],0
same,"Plant response rating, Corn",[6]; [18],0
same,"Plant response rating, Corn",[6]; [19],0
same,Corn plant response rating (0 to 10 scale),"[6]; Preemergence, Rate 125 g/ha",0
same,Corn plant response rating,"[6]; Preemergence, Rate 250 g/ha",0
same,Corn plant response rating,"[6]; Preemergence, Rate 500 g/ha",0
same,Corn plant response rating,"[6]; Rate 62 g/ha, Postemergence",0
same,"Plant response rating, Corn",[6]; [20],0
same,"Plant response rating, S. Flatsedge (0 to 10 scale, 0 is no effect, 10 is complete control)",[7]; [21],0
same,"S. Flatsedge plant response rating (0 to 10 scale, 0 is no effect, 10 is complete control)",[7]; [22],0
same,S. Flatsedge plant response rating,[7]; [23],0
same,S. Flatsedge plant response rating,[7]; [24],0
same,"Plant response rating, Morningglory",[8]; [17],7
same,"Plant response rating, Morningglory",[8]; [18],10
same,"Plant response rating, Morningglory",[8]; [19],0
same,Morningglory plant response rating (0 to 10 scale),"[8]; Preemergence, Rate 125 g/ha",0
same,Morningglory plant response rating,"[8]; Preemergence, Rate 250 g/ha",0
same,Morningglory plant response rating,"[8]; Preemergence, Rate 500 g/ha",0
same,Morningglory plant response rating,"[8]; Rate 62 g/ha, Postemergence",5
same,"Plant response rating, Morningglory",[8]; [20],10
same,"Plant response rating, Sugarbeets",[9]; [17],0
same,"Plant response rating, Sugarbeets",[9]; [18],0
same,"Plant response rating, Sugarbeets",[9]; [19],0
same,Sugarbeets plant response rating (0 to 10 scale),"[9]; Preemergence, Rate 125 g/ha",0
same,Sugarbeets plant response rating,"[9]; Preemergence, Rate 250 g/ha",0
same,Sugarbeets plant response rating,"[9]; Preemergence, Rate 500 g/ha",0
same,Sugarbeets plant response rating,"[9]; Rate 62 g/ha, Postemergence",0
same,"Plant response rating, Sugarbeets",[9]; [20],0
same,"Plant response rating, Bedstraw",[10]; [18],0
same,"Plant response rating, Bedstraw",[10]; [19],0
same,Bedstraw plant response rating (0 to 10 scale),"[10]; Preemergence, Rate 125 g/ha",0
same,Bedstraw plant response rating,"[10]; Preemergence, Rate 250 g/ha",0
same,Bedstraw plant response rating,"[10]; Preemergence, Rate 500 g/ha",0
same,"Plant response rating, Nutsedge",[11]; [17],0
same,"Plant response rating, Nutsedge",[11]; [18],0
same,"Plant response rating, Nutsedge",[11]; [19],0
same,Nutsedge plant response rating (0 to 10 scale),"[11]; Preemergence, Rate 125 g/ha",0
same,Nutsedge plant response rating,"[11]; Preemergence, Rate 250 g/ha",0
same,Nutsedge plant response rating,"[11]; Preemergence, Rate 500 g/ha",0
same,Nutsedge plant response rating,"[11]; Rate 62 g/ha, Postemergence",0
same,"Plant response rating, Nutsedge",[11]; [20],0
same,"Plant response rating, Rape",[12]; [17],0
same,"Plant response rating, Rape",[12]; [18],0
same,"Plant response rating, Rape",[12]; [19],0
same,Rape plant response rating (0 to 10 scale),"[12]; Preemergence, Rate 125 g/ha",0
same,Rape plant response rating,"[12]; Preemergence, Rate 250 g/ha",0
same,Rape plant response rating,"[12]; Preemergence, Rate 500 g/ha",0
same,Rape plant response rating,"[12]; Rate 62 g/ha, Postemergence",0
same,"Plant response rating, Rape",[12]; [20],3
same,"Plant response rating, Wild oats",[13]; [17],0
same,"Plant response rating, Wild oats",[13]; [18],0
same,"Plant response rating, Wild oats",[13]; [19],0
same,Wild oats plant response rating (0 to 10 scale),"[13]; Preemergence, Rate 125 g/ha",0
same,Wild oats plant response rating,"[13]; Preemergence, Rate 250 g/ha",0
same,Wild oats plant response rating,"[13]; Preemergence, Rate 500 g/ha",0
same,Wild oats plant response rating,"[13]; Rate 62 g/ha, Postemergence",0
same,"Plant response rating, Wild oats",[13]; [20],0
same,"Plant response rating, Blackgrass",[14]; [17],0
same,"Plant response rating, Blackgrass",[14]; [18],0
same,"Plant response rating, Blackgrass",[14]; [19],0
same,Blackgrass plant response rating (0 to 10 scale),"[14]; Preemergence, Rate 125 g/ha",0
same,Blackgrass plant response rating,"[14]; Preemergence, Rate 250 g/ha",0
same,Blackgrass plant response rating,"[14]; Preemergence, Rate 500 g/ha",0
same,Blackgrass plant response rating,"[14]; Rate 62 g/ha, Postemergence",0
same,"Plant response rating, Barnyardgrass (0 to 10 scale, 0 is no effect, 10 is complete control)",[15]; [21],0
same,"Barnyardgrass plant response rating (0 to 10 scale, 0 is no effect, 10 is complete control)",[15]; [22],0
same,Barnyardgrass plant response rating,[15]; [23],0
same,Barnyardgrass plant response rating,[15]; [24],0
same,"Plant response rating, B. signalgrass",[16]; [17],0
same,"Plant response rating, B. signalgrass",[16]; [18],0
same,"Plant response rating, B. signalgrass",[16]; [19],0
same,"B. signalgrass plant response rating (0 to 10 scale, 0 is no effect, 10 is complete control)","[16]; Preemergence, Rate 125 g/ha",0
same,B. signalgrass plant response rating,"[16]; Preemergence, Rate 250 g/ha",0
same,B. signalgrass plant response rating,"[16]; Preemergence, Rate 500 g/ha",0
same,B. signalgrass plant response rating,"[16]; Rate 62 g/ha, Postemergence",0
same,"Plant response rating, B. signalgrass",[16]; [20],2
